# Values of other authors as cited in patent US20070071679A1, “Methylamine risks and treatment of hyperactivity, depression, and alcoholism with epinephrine-N-quinolines” (priority 2005, published 2007).
# Read-outs that look alike come from different tables or passages of the source.
# How the values were obtained:
# [1] = test system: sleep-waking cycles of cats; details: for restoration of relative proportions of stages of sleep-waking cycles towards baseline: cats treated with monoamine reuptake inhibitor; for paradoxical (REM) sleep / active sleep: dose not given
# active sleep in kittens [2] = details: 6-OHDA pretreated, two weeks and one month of postnatal age
# [3] = test system: active sleep in a rat model; details: during ontogenetic development
# [4] = test system: regional cerebral blood flow; details: human beings
# cerebral blood flow = details: cats
# [5] = test system: paradoxical (REM) sleep in rats; details: for percentage of paradoxical (REM) sleep: rats aged 34 months, between 4 and 12 hours after i.p. administration
# active sleep in kittens [6] = test system: active sleep in kittens
# [7] = test system: limbic forebrain and cerebellum of rats
# human patients = details: antihypertensive treatment
# [8] = test system: prepubertal boys and patients with narcolepsy or symptomatic hypersomnia
# [9] = cats, 0.5 mg/kg of body weight intraperitoneally
compound,measurement,setting,value
CNCCCC1(c2ccccc2)CC(C)(C)c2ccccc21 (centres unmarked) [Prindamine],REM sleep latency,"[1]; cats, i.p. administration",lengthening
same,proportion of time cats are in REM sleep,[1]; during 16 hours after i.p. administration,approximately 7%
Clc1cccc(Cl)c1N=C1NCCN1 [clonidine],active sleep,active sleep in kittens [2]; 0.01 mg/kg i.p.,suppresses active sleep
same,paradoxical sleep (REM sleep),"[1]; mature cats, 0.01 mg/kg i.p.",suppresses paradoxical sleep
CC(C)NCC(O)c1ccc(O)c(O)c1 (centres unmarked) [isoproterenol],active sleep,[3],increase active sleep
Cc1ccc(N(CC2=NCCN2)c2cccc(O)c2)cc1 [phentolamine],duration of the episodes cats were in REM sleep,"REM sleep of cats; REM sleep deprivation plus 20 mg/kg i.p. at the beginning of recovery, n.s.",6.5 ± 1.9 min
same,number of REM episodes,REM sleep of cats; given at the beginning of recovery after REM sleep deprivation,did not affect
same,regional cerebral blood flow,[4],does not affect
same,cerebral blood flow,cerebral blood flow,doubled
same,frequency of REM sleep episodes in sleep-waking cycles,[5]; rats,increases the frequency of REM sleep episodes
same,percentage of paradoxical (REM) sleep,[5],increase
same,active sleep,active sleep in kittens [6],increase active sleep
same,restoration of relative proportions of stages of sleep-waking cycles towards baseline,[1],restores significantly
same,paradoxical (REM) sleep / active sleep,[1]; mature cats,increase active sleep
CC(C)NCC(O)COc1cccc2[nH]ccc12 (centres unmarked) [pindolol],amount of REM sleep,"[1]; cats, 0.1 mg/kg of body weight intraperitoneally",not
same,amount of REM sleep,[1]; [9],increases the amount of REM sleep
same,amount of drowsy wakefulness,[1]; [9],increases the amount of drowsy wakefulness
COc1cc2nc(N3CCN(C(=O)c4ccco4)CC3)nc(N)c2cc1OC [prazosin],active sleep,active sleep in kittens [2]; 0.5 mg/kg i.p.,does not affect active sleep
same,percentage of paradoxical (REM) sleep,[5],increase
same,restoration of relative proportions of stages of sleep-waking cycles towards baseline,[1],not
same,paradoxical sleep,"[1]; mature cats, 0.5 mg/kg i.p.",increases paradoxical sleep
same,paradoxical (REM) sleep / active sleep,[1]; mature cats,increases paradoxical (REM) sleep
CC(C)NC[C@H](O)COc1ccc(O)cc1 [prenalterol],paradoxical (REM) sleep / active sleep,[1]; mature cats,increases the amount of paradoxical (REM) sleep
CC(C)NCC(O)COc1cccc2ccccc12 (centres unmarked) [propranolol],concentrations of serotonin and 5-HIAA,[7]; after exposure during early development,lack of effect
same,content of norepinephrine in the limbic forebrain and cerebellum,[7]; at the age of five months after early postnatal exposure,increased content of norepinephrine
same,restoration of relative proportions of stages of sleep-waking cycles towards baseline,[1],not
COC(=O)[C@H]1[C@H]2C[C@@H]3c4[nH]c5cc(OC)ccc5c4CCN3C[C@H]2C[C@@H](OC(=O)c2cc(OC)c(OC)c(OC)c2)[C@@H]1OC [reserpine],share of treated patients with clinical depression,human patients,one fourth
COC(=O)[C@@H]1[C@H]2C[C@H]3c4[nH]c5ccccc5c4CCN3C[C@@H]2CC[C@@H]1O [yohimbine],restoration of relative proportions of stages of sleep-waking cycles towards baseline,[1],not
arginine-vasotocin,rapid eye movement sleep,[8],induce rapid eye movement sleep
